Laboratory results published in paper PMC8035703, “Effect of Synchronous Versus Sequential Regimens on the Pharmacokinetics and Biodistribution of Regorafenib with Irradiation” (Pharmaceutics, 2021).
Read-outs that look alike come from different tables or passages of the source.

Experiments:
Huh-7 cells [1] = assay: Cell cycle analysis (propidium iodide, flow cytometry); format: cell-based, human
Method: The cells were collected, fixed and stained with propidium iodide. Flow cytometry was performed, using a Beckman Coulter Elite Epics sorter. The sub-G1 phase was used to quantify dead cells in the apoptosis assays. Cells were released into DMSO or regorafenib at 5, 10 and 20 μM in the concurrent or sequential groups with different RT doses. Floating and adherent cells were harvested at various time points, stained with propidium iodide and analyzed by flow cytometry.

CYP3A4 = test system: CYP3A4; set-up: method as in PMID 21170960; settings: cited from earlier work
Huh-7 cells [2] = assay: Cell viability assay (MTT), Huh-7; format: cell-based, human; settings: for IC50 / viability at 5 µM / viability at 10 µM / viability at 20 µM: Homo sapiens; for IC50: MTT after 24 h, read-out: IC50 (estimated concentration at which 50% of cells were killed); for viability at 5 µM: Huh-7, regorafenib 5 μM; for viability at 10 µM: Huh-7, regorafenib 10 μM; for viability at 20 µM: Huh-7, regorafenib 20 μM
Method: Human hepatoma Huh-7 and Hep G2 cell lines kindly provided by Professor Hu (Taipei Veterans General Hospital, Taiwan) were plated into 96-well plates (1 × 10^3 per well) with serum-containing medium (100 μL) for 1 day. Regorafenib at concentrations of 0, 5, 10 and 20 μmol/L (μM) was added to the plates. Then, the study groups were designed: the concurrent group (1 h after irradiation) or sequential group (24 h after irradiation) with sham RT (RT0 Gy), 2 Gy (RT2 Gy) and 9 Gy (RT9 Gy). Additionally, after 24 h, 20 μL of 5 mg/mL MTT was added to the plates and incubated for 3 h. The supernatant was discarded, the precipitate was dissolved in 200 μL DMSO, and the plates were read with a microplate reader at 570 nm and a reference wavelength of 630 nm.

Which results are given for `CNC(=O)c1cc(Oc2ccc(NC(=O)Nc3ccc(Cl)c(C(F)(F)F)c3)c(F)c2)ccn1` [regorafenib, Regorafenib]?
Accumulation of sub-G1 Huh-7 cells (in words) (Huh-7 cells [1]; concurrent groups): correlated with the dose of regorafenib but was not correlated with RT or its absence; Accumulation of sub-G1 Huh-7 cells (in words) (Huh-7 cells [1]; sequential groups): correlated with the doses of regorafenib and RT; Metabolic pathway (in words) (CYP3A4): metabolized via CYP3A4; Effect on viability of Huh-7 cells (in words) (Huh-7 cells [2]; 0-20 μM): inhibited the viability of Huh-7 cells in a dose-dependent manner; IC50 (Huh-7 cells [2]; Huh-7, 24 h, Huh-7, RT0 Gy, S (regorafenib added 24 h following RT)): 12.8 µM; IC50 (Huh-7 cells [2]; Huh-7, 24 h, Huh-7, RT2 Gy, S (regorafenib added 24 h following RT)): 12.1 µM; IC50 (Huh-7 cells [2]; Huh-7, 24 h, Huh-7, RT9 Gy, S (regorafenib added 24 h following RT)): 15.2 µM; IC50 (Huh-7 cells [2]; Huh-7, Huh-7, RT0 Gy, C (regorafenib added 1 h following RT)): 6.56 µM; IC50 (Huh-7 cells [2]; Huh-7, Huh-7, RT2 Gy, C (regorafenib added 1 h following RT)): 6.38 µM; IC50 (Huh-7 cells [2]; Huh-7, Huh-7, RT9 Gy, C (regorafenib added 1 h following RT)): 6.36 µM; viability at 5 µM (Huh-7 cells [2]; Huh-7, RT0 Gy, C): 60.9 ± 1.8%; viability at 5 µM (Huh-7 cells [2]; Huh-7, RT0 Gy, S): 72.6 ± 1%; viability at 5 µM (Huh-7 cells [2]; Huh-7, RT2 Gy, C): 59.8 ± 5.5%; viability at 5 µM (Huh-7 cells [2]; Huh-7, RT2 Gy, S): 59.5 ± 2.7%; viability at 5 µM (Huh-7 cells [2]; Huh-7, RT9 Gy, C): 62.3 ± 14.1%; viability at 5 µM (Huh-7 cells [2]; Huh-7, RT9 Gy, S): 60.2 ± 5.6%; viability at 10 µM (Huh-7 cells [2]; Huh-7, RT0 Gy, C): 35.1 ± 1.6%; viability at 10 µM (Huh-7 cells [2]; Huh-7, RT0 Gy, S): 55.2 ± 1.2%; viability at 10 µM (Huh-7 cells [2]; Huh-7, RT2 Gy, C): 33.9 ± 2.7%; viability at 10 µM (Huh-7 cells [2]; Huh-7, RT2 Gy, S): 46 ± 2.9%; viability at 10 µM (Huh-7 cells [2]; Huh-7, RT9 Gy, C): 34.3 ± 5.3%; viability at 10 µM (Huh-7 cells [2]; Huh-7, RT9 Gy, S): 47.6 ± 3%; viability at 20 µM (Huh-7 cells [2]; Huh-7, RT0 Gy, C): 15.4 ± 1%; viability at 20 µM (Huh-7 cells [2]; Huh-7, RT0 Gy, S): 41.4 ± 0.4%; viability at 20 µM (Huh-7 cells [2]; Huh-7, RT2 Gy, C): 14.4 ± 0.8%; viability at 20 µM (Huh-7 cells [2]; Huh-7, RT2 Gy, S): 36.3 ± 1.4%; viability at 20 µM (Huh-7 cells [2]; Huh-7, RT9 Gy, C): 14.1 ± 0.7%; viability at 20 µM (Huh-7 cells [2]; Huh-7, RT9 Gy, S): 41.1 ± 1.7%; Viability: concurrent regorafenib with RT2 Gy and RT9 Gy vs regorafenib only (in words) (Huh-7 cells [2]; Huh-7 and Hep G2): no synergistic effects; Viability with regorafenib following RT2 Gy and RT9 Gy (in words) (Huh-7 cells [2]; Huh-7 and Hep G2, regorafenib 10 and 20 μM, sequential): higher than the regorafenib-only and concurrent regimen
